# In patent US20080312255A1 (ASTRAZENECA AB, priority 2007, published 2008):
# Target: S. aureus GyrB ATPase (Staphylococcus aureus, UniProt P0A0K8)
# Test: S. aureus GyrB ATPase inhibition (ammonium molybdate/malachite green phosphate detection)
# Type: biochemical
# Conditions: compound concentration of 1 μM
# Description: S. aureus GyrB ATPase Inhibition Activity: Compounds may be tested for inhibition of S. aureus GyrB ATPase activity using an ammonium molybdate/malachite green-based phosphate detection assay (Lanzetta, P. A., L. J. Alvarez, P. S. Reinach, and O. A. Candia, 1979, 100: 95-97). Assays can be performed in multiwell plates in 30 μl reactions containing: 50 mM Hepes buffer pH 7.5, 75 mM ammonium acetate, 8.0 mM magnesium chloride, 0.5 mM ethylenediaminetetraacetic acid, 5% glycerol, 1.0 mM 1,4-Dithio-DL-threitol, 200 nM bovine serum albumin, 1.0 μg/ml sheared salmon sperm DNA, 250 pM E. coli GyrA, 250 pM S. aureus GyrB, 250 μM ATP, and compound in dimethylsulfoxide. Reactions can be quenched with […] of ammonium molybdate/malachite green detection reagent containing 1.2 mM malachite green hydrochloride, 8.5 mM ammonium molybdate tetrahydrate, and 1 M hydrochloric acid. Plates can be read in an absorbance plate reader at 650 nm and percent inhibition values can be calculated using dimethylsulfoxide (2%)-containing reactions as 0% inhibition and EDTA-containing ([…]) reactions as 100% inhibition controls. An IC50 measurement of compound potency for each compound can be determined from reactions performed in the presence of 10 different compound concentrations.
# Compounds of the invention were tested in an assay substantially similar to the assay described above for measuring the inhibition of S. aureus GyrB ATPase. Percent inhibition of S. aureus GyrB ATPase at a compound concentration of 1 μM (unless otherwise noted) is disclosed in the following table: […]
# Sequence of S. aureus GyrB ATPase (P0AES4 whole entry): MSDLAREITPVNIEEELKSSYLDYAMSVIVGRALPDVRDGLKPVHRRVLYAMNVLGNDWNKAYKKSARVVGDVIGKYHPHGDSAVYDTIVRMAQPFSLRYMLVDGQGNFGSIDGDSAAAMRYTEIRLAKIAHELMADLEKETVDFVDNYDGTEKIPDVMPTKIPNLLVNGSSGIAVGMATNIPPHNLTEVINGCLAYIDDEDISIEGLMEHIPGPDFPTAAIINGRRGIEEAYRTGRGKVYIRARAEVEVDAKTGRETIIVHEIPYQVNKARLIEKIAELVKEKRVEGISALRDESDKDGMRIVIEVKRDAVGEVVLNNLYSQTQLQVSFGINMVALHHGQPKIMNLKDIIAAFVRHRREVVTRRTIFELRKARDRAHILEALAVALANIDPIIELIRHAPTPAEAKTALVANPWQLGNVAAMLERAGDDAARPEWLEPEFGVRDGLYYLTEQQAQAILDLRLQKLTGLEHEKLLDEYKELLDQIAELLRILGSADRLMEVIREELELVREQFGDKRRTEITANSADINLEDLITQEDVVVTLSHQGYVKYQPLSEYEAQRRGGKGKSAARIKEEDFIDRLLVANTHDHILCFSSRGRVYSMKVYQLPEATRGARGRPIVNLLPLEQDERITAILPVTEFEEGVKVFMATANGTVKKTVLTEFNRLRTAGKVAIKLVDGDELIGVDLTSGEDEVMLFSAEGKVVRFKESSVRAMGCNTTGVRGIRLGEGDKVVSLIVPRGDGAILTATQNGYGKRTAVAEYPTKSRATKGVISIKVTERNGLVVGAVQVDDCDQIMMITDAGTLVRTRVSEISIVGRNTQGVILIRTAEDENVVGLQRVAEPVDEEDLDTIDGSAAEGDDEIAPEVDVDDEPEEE
# Sequence of S. aureus GyrB ATPase (P0A0K8 whole entry): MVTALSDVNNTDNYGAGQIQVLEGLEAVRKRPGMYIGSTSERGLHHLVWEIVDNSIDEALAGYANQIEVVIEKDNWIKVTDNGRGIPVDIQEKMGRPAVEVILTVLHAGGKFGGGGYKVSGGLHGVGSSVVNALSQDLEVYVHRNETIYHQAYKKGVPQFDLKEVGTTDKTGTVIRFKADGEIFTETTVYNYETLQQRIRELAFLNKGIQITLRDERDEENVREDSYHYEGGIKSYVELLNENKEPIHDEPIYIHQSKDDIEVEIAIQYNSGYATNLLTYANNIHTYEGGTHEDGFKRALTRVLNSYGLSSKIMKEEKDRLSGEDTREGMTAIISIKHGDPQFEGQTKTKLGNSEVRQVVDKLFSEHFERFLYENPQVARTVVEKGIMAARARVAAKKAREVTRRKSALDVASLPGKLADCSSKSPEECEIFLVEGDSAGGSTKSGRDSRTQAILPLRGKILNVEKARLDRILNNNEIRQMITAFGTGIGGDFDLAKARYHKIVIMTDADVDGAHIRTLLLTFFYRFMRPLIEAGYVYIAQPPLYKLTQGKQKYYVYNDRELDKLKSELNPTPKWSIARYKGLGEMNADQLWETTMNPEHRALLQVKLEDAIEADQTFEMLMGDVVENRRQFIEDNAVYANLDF
row,SMILES,inhibition at 1 µM
1,"CO[C@H]1CN(c2nc(-c3ncccc3F)c(C(=O)O)s2)CC[C@H]1NC(=O)c1[nH]c(C)c(Cl)c1Cl [Example 114, 2-((3S,4R)-4-(3,4-dichloro-5-methyl-1H-pyrrole-2-carboxamido)-3-methoxypiperidin-1-yl)-4-(3-fluoropyridin-2-yl)thiazole-5-carboxylic acid]",82.9%
2,"COCCn1ccnc1-c1nc(N2CC[C@@H](NC(=O)c3[nH]c(C)c(Cl)c3Cl)[C@@H](OC)C2)sc1C(=O)O [Example 25, 2-((3S,4R)-4-{[(3,4-Dichloro-5-methyl-1H-pyrrol-2-yl)carbonyl]amino}-3-methoxypiperidin-1-yl)-4-[1-(2-methoxyethyl)-1H-imidazol-2-yl]-1,3-thiazole-5-carboxylic acid]",98.3%
3,"CO[C@H]1CN(c2nc(-c3ccncn3)c(C(=O)O)s2)CC[C@H]1NC(=O)c1[nH]c(C)c(Cl)c1Cl [Example 2, 2-((3S,4R)-4-{[(3,4-Dichloro-5-methyl-1H-pyrrol-2-yl)carbonyl]amino}-3-methoxypiperidin-1-yl)-4-pyrimidin-4-yl-1,3-thiazole-5-carboxylic acid]",101%
4,CCOC(=O)c1sc(N2CC[C@@H](NC(=O)c3[nH]c(C)c(Cl)c3Cl)[C@@H](F)C2)nc1-c1cnccn1 [Example 55],97.9%
5,COCCn1ccnc1-c1nc(N2CC[C@@H](NC(=O)c3[nH]c(C)c(C#N)c3Cl)[C@@H](OC)C2)sc1C(=O)OC [Example 69],100%
6,COC(=O)c1sc(N2CC[C@@H](NC(=O)c3[nH]c(C)c(Cl)c3Cl)[C@@H](OC)C2)nc1-c1csc(N)n1 [Example 71],101%
7,COC(=O)c1sc(N2CC[C@@H](NC(=O)c3[nH]c(C)c(Cl)c3Cl)[C@@H](OC)C2)nc1-c1nccc(OC)n1 [Example 82],103%
8,"Cc1[nH]c(C(=O)N[C@@H]2CCN(c3nc(-c4csc(N(C)C)n4)c(C(=O)O)s3)C[C@@H]2F)c(Cl)c1Cl [Example 38, 2-((3S,4R)-4-{[(3,4-Dichloro-5-methyl-1H-pyrrol-2-yl)carbonyl]amino}-3-fluoropiperidin-1-yl)-2′-(dimethylamino)-4,4′-bi-1,3-thiazole-5-carboxylic acid]",97.3%
9,COC(=O)c1sc(N2CC[C@@H](NC(=O)c3[nH]c(C)c(C#N)c3Cl)[C@@H](OC)C2)nc1-c1ncnn1C [Example 80],99.7%
10,"CCCO[C@H]1CN(c2nc(-c3ncccc3F)c(C(=O)O)s2)CC[C@H]1NC(=O)c1[nH]c(C)c(Cl)c1Cl [Example 160, 2-[(3S,4R)-4-{[(3,4-dichloro-5-methyl-1H-pyrrol-2-yl)carbonyl]amino}-3-propoxypiperidin-1-yl]-4-(3-fluoropyridin-2-yl)-1,3-thiazole-5-carboxylic acid]",4.5%
11,"Cc1[nH]c(C(=O)N[C@@H]2CCN(c3nc(-c4ncnn4C)c(C(=O)O)s3)C[C@@H]2F)c(Cl)c1Cl [Example 28, 2-((3S,4R)-4-{[(3,4-Dichloro-5-methyl-1H-pyrrol-2-yl)carbonyl]amino}-3-fluoropiperidin-1-yl)-4-(1-methyl-1H-1,2,4-triazol-5-yl)-1,3-thiazole-5-carboxylic acid]",87.1%
12,"COC(=O)c1sc(N2CC[C@@H](NC(=O)c3[nH]c(C)c(Cl)c3C#N)[C@@H](OC)C2)nc1-c1cn(C)nn1 [Example 103, methyl 2-((3S,4R)-4-(4-chloro-3-cyano-5-methyl-1H-pyrrole-2-carboxamido)-3-methoxypiperidin-1-yl)-4-(1-methyl-1H-1,2,3-triazol-4-yl)thiazole-5-carboxylate]",85.7%
13,COC(=O)c1sc(N2CC[C@@H](NC(=O)c3cc(C#N)c(C)[nH]3)[C@@H](OC)C2)nc1-c1ncnn1C [Example 68],97%
14,"COCCn1ccnc1-c1nc(N2CC[C@@H](NC(=O)c3[nH]c(C)c(C#N)c3Cl)[C@@H](OC)C2)sc1C(=O)O [Example 30, 2-((3S,4R)-4-{[(3-Chloro-4-cyano-5-methyl-1H-pyrrol-2-yl)carbonyl]amino}-3-methoxypiperidin-1-yl)-4-[1-(2-methoxyethyl)-1H-imidazol-2-yl]-1,3-thiazole-5-carboxylic acid]",102%
15,"CO[C@H]1CN(c2nc(-c3cn(C)cn3)c(C(=O)O)s2)CC[C@H]1NC(=O)c1[nH]c(C)c(Cl)c1C#N [Example 125, 2-((3S,4R)-4-(4-chloro-3-cyano-5-methyl-1H-pyrrole-2-carboxamido)-3-methoxypiperidin-1-yl)-4-(1-methyl-1H-imidazol-4-yl)thiazole-5-carboxylic acid]",103%
16,"CCOC(=O)c1sc(N2CC[C@@H](NC(=O)c3[nH]c(C)c(Cl)c3Cl)[C@@H](OC)C2)nc1-c1ncccn1 [Example 43, Ethyl 2-((3S,4R)-4-{[(3,4-dichloro-5-methyl-1H-pyrrol-2-yl)carbonyl]amino}-3-methoxypiperidin-1-yl)-4-pyrimidin-2-yl-1,3-thiazole-5-carboxylate]",102%
17,"CCOC(=O)c1sc(N2CC[C@@H](NC(=O)c3[nH]c(C)c(Cl)c3Cl)[C@@H](OC)C2)nc1-c1ncccc1F [Example 97, ethyl 2-((3S,4R)-4-(3,4-dichloro-5-methyl-1H-pyrrole-2-carboxamido)-3-methoxypiperidin-1-yl)-4-(3-fluoropyridin-2-yl)thiazole-5-carboxylate]",91.5%
18,"Cc1[nH]c(C(=O)N[C@@H]2CCN(c3nc(-c4ccn[nH]4)c(C(=O)O)s3)C[C@@H]2F)c(Cl)c1Cl [Example 24, 2-((3S,4R)-4-{[(3,4-Dichloro-5-methyl-1H-pyrrol-2-yl)carbonyl]amino}-3-fluoropiperidin-1-yl)-4-(1H-pyrazol-5-yl)-1,3-thiazole-5-carboxylic acid]",65.9%
19,"CO[C@H]1CN(c2nc(-c3cn(C)cn3)c(C(=O)O)s2)CC[C@H]1NC(=O)c1[nH]c(C)c(Cl)c1Cl [Example 40, 2-((3S,4R)-4-{[(3,4-Dichloro-5-methyl-1H-pyrrol-2-yl)carbonyl]amino}-3-methoxypiperidin-1-yl)-4-(1-methyl-1H-imidazol-4-yl)-1,3-thiazole-5-carboxylic acid]",101%
20,"COC(=O)c1sc(N2CC[C@@H](NC(=O)c3[nH]c(C)c(Cl)c3Cl)[C@@H](OC)C2)nc1-c1cccc(OC)n1 [Example 94, methyl 2-((3S,4R)-4-(3,4-dichloro-5-methyl-1H-pyrrole-2-carboxamido)-3-methoxypiperidin-1-yl)-4-(6-methoxypyridin-2-yl)thiazole-5-carboxylate]",106%
21,"Cc1[nH]c(C(=O)N[C@@H]2CCN(c3nc(-c4ncccc4F)c(C(=O)O)s3)C[C@@H]2OCc2ccccc2)c(Cl)c1Cl [Example 144, 2-[(3S,4R)-3-(benzyloxy)-4-{[(3,4-dichloro-5-methyl-1H-pyrrol-2-yl)carbonyl]amino}piperidin-1-yl]-4-(3-fluoropyridin-2-yl)-1,3-thiazole-5-carboxylic acid]",114%
22,COC(=O)c1sc(N2CC[C@@H](NC(=O)c3[nH]c(C)c(Cl)c3Cl)[C@@H](F)C2)nc1-c1ncc[nH]1 [Example 87],71%
23,"CO[C@H]1CN(c2nc(-c3nccn3C)c(C(=O)O)s2)CC[C@H]1NC(=O)c1[nH]c(C)c(Cl)c1Cl [Example 21, 2-((3S,4R)-4-{[(3,4-Dichloro-5-methyl-1H-pyrrol-2-yl)carbonyl]amino}-3-methoxypiperidin-1-yl)-4-(1-methyl-1H-imidazol-2-yl)-1,3-thiazole-5-carboxylic acid]",99.1%
